Legend:
Experiment in all cases: radiometric filter-binding kinase assay, Kinase HotSpot
Conditions in all cases: compound 0.5 µM; ATP 10 µM
WNK2 (human) = WNK2 (human) (UniProt Q9Y3S1)
MELK (human) = MELK (human) (UniProt Q14680)
INSRR (human) = INSRR (human) (UniProt P14616)
RIPK2 (human) = RIPK2 (human) (UniProt O43353)
GRK5 (human) = GRK5 (human) (UniProt P34947)
KDR (human) = KDR (human) (UniProt P35968)
MAP3K10 (human) = MAP3K10 (human) (UniProt Q02779)
DYRK4 (human) = DYRK4 (human) (UniProt Q9NR20)
FGFR4 (human) = FGFR4 (human) (UniProt P22455)
ROCK2 (human) = ROCK2 (human) (UniProt O75116)
DAPK1 (human) = DAPK1 (human) (UniProt P53355)
FLT3 (human) = FLT3 (human) (UniProt P36888)
EPHB1 (human) = EPHB1 (human) (UniProt P54762)
AKT1 (human) = AKT1 (human) (UniProt P31749)
PHKG1 (human) = PHKG1 (human) (UniProt Q16816)
[1] = target: TYK2 JH1 catalytic (human) (UniProt P29597)
CLK2 (human) = CLK2 (human) (UniProt P49760)
STK11 (human) = STK11 (human) (UniProt Q15831)
CSNK1E (human) = CSNK1E (human) (UniProt P49674)
PKN1 (human) = PKN1 (human) (UniProt Q16512)
MYLK2 (human) = MYLK2 (human) (UniProt Q9H1R3)
ERBB4 (human) = ERBB4 (human) (UniProt Q15303)
TSSK2 (human) = TSSK2 (human) (UniProt Q96PF2)
CSNK1G3 (human) = CSNK1G3 (human) (UniProt Q9Y6M4)
AURKB (human) = AURKB (human) (UniProt Q96GD4)
SRC (human) = SRC (human) (UniProt P12931)
CDK4 CCND3 (human) = CDK4 CCND3 (human) (UniProt P30281+P11802)
CDK7 CCNH MNAT1 (human) = CDK7 CCNH MNAT1 (human) (UniProt P50613+P51948+P51946)
RPS6KB2 (human) = RPS6KB2 (human) (UniProt Q9UBS0)
FYN (human) = FYN (human) (UniProt P06241)
PIM1 (human) = PIM1 (human) (UniProt P11309)
DCLK2 (human) = DCLK2 (human) (UniProt Q8N568)
MAPK9 (human) = MAPK9 (human) (UniProt P45984)
BLK (human) = BLK (human) (UniProt P51451)
HIPK4 (human) = HIPK4 (human) (UniProt Q8NE63)
[2] = tested on: PRKCQ (human), Q04759 [P330L]
MERTK (human) = MERTK (human) (UniProt Q12866)
MAP3K9 (human) = MAP3K9 (human) (UniProt P80192)
[3] = tested on: MKNK1 (human), Q9BUB5 [T385D; 165-205 del]
TEC (human) = TEC (human) (UniProt P42680)
INSR (human) = INSR (human) (UniProt P06213)
RPS6KA4 KD2 (human) = RPS6KA4 KD2 (human) (UniProt O75676)

Sequence of TEC (human) (P42680 whole entry, looked up): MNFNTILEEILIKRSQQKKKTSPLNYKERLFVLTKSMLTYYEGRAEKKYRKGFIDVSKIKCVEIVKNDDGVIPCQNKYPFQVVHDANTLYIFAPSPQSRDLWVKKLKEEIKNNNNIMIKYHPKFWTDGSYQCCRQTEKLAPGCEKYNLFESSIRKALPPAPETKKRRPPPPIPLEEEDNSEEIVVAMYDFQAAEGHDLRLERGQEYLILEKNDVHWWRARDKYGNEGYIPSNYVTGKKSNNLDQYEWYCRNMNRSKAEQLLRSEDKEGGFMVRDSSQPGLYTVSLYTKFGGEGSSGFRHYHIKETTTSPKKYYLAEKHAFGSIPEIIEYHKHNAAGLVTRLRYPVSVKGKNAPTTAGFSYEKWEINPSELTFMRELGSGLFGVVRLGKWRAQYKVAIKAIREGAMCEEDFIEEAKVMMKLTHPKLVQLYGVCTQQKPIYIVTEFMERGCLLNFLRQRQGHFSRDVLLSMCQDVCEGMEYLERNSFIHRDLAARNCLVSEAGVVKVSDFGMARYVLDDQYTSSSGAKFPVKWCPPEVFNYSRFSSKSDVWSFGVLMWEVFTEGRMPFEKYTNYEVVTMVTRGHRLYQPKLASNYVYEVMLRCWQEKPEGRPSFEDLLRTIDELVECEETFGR
Sequence of MELK (human) (Q14680 whole entry, looked up): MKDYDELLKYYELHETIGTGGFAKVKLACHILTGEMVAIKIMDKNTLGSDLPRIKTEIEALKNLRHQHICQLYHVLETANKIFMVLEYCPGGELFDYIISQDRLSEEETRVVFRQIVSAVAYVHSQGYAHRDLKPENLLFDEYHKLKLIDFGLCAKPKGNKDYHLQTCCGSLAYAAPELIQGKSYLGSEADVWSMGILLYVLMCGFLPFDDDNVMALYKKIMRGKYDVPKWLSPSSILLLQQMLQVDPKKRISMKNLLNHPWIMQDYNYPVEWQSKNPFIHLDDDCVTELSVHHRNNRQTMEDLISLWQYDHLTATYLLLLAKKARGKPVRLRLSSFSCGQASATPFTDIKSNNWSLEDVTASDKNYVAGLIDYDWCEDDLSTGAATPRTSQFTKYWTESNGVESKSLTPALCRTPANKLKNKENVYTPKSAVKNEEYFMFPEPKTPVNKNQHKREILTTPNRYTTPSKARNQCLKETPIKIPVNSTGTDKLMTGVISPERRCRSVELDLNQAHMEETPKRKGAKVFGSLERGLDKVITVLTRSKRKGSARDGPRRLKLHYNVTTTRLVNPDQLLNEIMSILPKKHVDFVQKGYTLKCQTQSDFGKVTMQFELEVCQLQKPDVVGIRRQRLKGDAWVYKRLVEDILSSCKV
Sequence of INSR (human) (P06213 whole entry, looked up): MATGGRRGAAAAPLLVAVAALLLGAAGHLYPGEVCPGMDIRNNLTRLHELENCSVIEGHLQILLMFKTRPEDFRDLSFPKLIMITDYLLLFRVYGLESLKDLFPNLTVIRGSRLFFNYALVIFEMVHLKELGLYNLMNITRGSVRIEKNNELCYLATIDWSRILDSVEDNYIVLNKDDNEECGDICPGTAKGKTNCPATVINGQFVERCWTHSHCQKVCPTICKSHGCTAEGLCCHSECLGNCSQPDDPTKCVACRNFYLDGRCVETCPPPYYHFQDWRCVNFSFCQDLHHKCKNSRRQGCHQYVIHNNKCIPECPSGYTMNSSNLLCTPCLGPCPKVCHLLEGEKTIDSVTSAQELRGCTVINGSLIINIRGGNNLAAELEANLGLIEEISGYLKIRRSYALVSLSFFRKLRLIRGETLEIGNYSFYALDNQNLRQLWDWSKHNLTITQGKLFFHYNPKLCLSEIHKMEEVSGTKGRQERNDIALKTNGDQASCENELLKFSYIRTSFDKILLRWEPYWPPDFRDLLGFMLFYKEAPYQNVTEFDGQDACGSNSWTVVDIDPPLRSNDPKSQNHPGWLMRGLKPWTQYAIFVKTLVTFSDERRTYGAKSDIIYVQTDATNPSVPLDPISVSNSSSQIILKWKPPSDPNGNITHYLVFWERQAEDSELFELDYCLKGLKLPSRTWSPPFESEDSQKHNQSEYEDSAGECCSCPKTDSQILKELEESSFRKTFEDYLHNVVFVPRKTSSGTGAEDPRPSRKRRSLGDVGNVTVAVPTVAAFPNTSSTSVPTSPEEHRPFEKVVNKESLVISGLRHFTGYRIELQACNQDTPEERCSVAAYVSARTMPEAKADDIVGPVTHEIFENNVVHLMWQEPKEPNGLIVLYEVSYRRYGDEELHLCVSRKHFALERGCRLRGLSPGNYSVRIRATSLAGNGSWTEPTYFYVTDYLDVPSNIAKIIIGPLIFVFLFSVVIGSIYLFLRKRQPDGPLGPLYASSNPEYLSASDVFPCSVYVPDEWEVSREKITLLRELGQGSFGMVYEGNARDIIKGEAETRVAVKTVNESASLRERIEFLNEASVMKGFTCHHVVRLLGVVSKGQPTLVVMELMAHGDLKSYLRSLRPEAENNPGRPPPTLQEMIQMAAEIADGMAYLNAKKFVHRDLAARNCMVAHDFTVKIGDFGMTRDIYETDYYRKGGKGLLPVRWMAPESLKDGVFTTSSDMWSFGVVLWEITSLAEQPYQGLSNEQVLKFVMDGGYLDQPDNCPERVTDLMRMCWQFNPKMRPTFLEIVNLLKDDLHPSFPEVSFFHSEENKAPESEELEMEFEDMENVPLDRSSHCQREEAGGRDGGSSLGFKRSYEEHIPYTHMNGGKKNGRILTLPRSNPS
Sequence of PHKG1 (human) (Q16816 whole entry, looked up): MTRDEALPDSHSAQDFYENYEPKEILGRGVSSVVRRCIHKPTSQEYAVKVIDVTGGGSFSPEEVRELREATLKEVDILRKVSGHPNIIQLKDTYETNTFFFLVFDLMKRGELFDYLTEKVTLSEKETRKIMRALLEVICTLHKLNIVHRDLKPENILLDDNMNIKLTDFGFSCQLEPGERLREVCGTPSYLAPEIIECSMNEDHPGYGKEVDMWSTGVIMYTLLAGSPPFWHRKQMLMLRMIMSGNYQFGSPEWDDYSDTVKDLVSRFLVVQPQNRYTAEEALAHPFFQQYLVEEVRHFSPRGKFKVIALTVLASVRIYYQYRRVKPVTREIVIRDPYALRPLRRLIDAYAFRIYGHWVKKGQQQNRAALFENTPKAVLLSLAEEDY
Sequence of GRK5 (human) (P34947 whole entry, looked up): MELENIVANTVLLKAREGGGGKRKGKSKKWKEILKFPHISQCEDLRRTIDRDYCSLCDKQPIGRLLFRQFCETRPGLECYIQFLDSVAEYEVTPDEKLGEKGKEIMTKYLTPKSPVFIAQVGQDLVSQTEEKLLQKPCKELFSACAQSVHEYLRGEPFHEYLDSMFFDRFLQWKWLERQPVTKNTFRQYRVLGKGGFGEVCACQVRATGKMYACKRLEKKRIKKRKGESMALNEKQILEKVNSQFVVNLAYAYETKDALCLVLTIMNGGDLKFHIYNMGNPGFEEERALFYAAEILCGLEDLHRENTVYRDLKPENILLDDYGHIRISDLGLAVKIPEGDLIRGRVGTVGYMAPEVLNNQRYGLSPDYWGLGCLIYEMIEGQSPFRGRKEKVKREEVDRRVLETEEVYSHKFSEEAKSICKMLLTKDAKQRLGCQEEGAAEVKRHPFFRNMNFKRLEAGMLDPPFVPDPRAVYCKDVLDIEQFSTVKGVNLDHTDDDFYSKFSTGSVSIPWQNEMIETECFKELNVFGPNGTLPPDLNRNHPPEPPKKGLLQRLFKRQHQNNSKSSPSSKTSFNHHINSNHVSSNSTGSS
Sequence of TSSK2 (human) (Q96PF2 whole entry, looked up): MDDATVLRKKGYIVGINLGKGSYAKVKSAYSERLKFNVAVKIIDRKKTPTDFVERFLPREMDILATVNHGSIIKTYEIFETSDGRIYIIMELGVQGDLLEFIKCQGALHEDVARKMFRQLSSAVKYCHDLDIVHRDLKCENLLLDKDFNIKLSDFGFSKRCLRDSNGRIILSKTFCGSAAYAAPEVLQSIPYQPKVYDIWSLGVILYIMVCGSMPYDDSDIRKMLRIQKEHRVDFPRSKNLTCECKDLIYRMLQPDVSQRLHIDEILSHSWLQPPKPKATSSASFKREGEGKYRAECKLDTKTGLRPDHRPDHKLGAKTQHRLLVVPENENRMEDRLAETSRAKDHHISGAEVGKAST
Sequence of FGFR4 (human) (P22455 whole entry, looked up): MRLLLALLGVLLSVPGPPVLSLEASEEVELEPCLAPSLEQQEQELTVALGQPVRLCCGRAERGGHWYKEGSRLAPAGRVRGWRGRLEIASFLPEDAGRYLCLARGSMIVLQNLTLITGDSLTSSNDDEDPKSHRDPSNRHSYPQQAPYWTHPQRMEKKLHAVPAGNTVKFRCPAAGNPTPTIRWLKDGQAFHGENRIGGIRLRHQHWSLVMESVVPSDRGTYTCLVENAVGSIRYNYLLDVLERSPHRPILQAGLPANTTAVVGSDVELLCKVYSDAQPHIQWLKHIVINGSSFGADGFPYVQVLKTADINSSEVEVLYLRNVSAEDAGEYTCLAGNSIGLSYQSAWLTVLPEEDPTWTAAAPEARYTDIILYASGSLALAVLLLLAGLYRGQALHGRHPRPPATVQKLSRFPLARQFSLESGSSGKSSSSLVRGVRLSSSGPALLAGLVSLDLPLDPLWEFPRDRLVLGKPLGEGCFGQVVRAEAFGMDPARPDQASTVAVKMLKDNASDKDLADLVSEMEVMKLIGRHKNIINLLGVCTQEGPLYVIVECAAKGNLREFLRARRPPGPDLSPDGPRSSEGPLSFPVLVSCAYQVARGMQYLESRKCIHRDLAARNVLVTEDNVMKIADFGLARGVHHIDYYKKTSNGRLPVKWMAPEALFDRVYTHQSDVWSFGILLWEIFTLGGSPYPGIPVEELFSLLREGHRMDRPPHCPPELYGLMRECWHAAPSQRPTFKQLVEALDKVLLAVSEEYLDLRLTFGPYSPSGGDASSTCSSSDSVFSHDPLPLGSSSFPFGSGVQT

Compound: Cc1cccc(-c2nc(C(C)(C)C)[nH]c2-c2ccc3c(c2)OCO3)n1
- residual activity (WNK2 (human)): 105%
- residual activity (MELK (human)): 92.7%
- residual activity (INSRR (human)): 95.1%
- residual activity (RIPK2 (human)): 79%
- residual activity (GRK5 (human)): 108%
- residual activity (KDR (human)): 94.7%
- residual activity (MAP3K10 (human)): 99.3%
- residual activity (DYRK4 (human)): 89.7%
- residual activity (FGFR4 (human)): 73.8%
- residual activity (ROCK2 (human)): 104%
- residual activity (DAPK1 (human)): 102%
- residual activity (FLT3 (human)): 96.2%
- residual activity (EPHB1 (human)): 95.5%
- residual activity (AKT1 (human)): 94.6%
- residual activity (PHKG1 (human)): 87.6%
- residual activity [1]: 102%
- residual activity (CLK2 (human)): 95.2%
- residual activity (STK11 (human)): 91.3%
- residual activity (CSNK1E (human)): 71.5%
- residual activity (PKN1 (human)): 108%
- residual activity (MYLK2 (human)): 99.2%
- residual activity (ERBB4 (human)): 83.1%
- residual activity (TSSK2 (human)): 92.7%
- residual activity (CSNK1G3 (human)): 102%
- residual activity (AURKB (human)): 96.5%
- residual activity (SRC (human)): 96%
- residual activity (CDK4 CCND3 (human)): 102%
- residual activity (CDK7 CCNH MNAT1 (human)): 106%
- residual activity (RPS6KB2 (human)): 102%
- residual activity (FYN (human)): 108%
- residual activity (PIM1 (human)): 100%
- residual activity (DCLK2 (human)): 101%
- residual activity (MAPK9 (human)): 98.2%
- residual activity (BLK (human)): 98.5%
- residual activity (HIPK4 (human)): 107%
- residual activity [2]: 107%
- residual activity (MERTK (human)): 82%
- residual activity (MAP3K9 (human)): 94%
- residual activity [3]: 86.8%
- residual activity (TEC (human)): 123%
- residual activity (INSR (human)): 87.6%

Compound: NC(=O)c1cccc(-c2cc(Nc3ccc(OC(F)(F)F)cc3)ncn2)c1
- residual activity (WNK2 (human)): 115%
- residual activity (MELK (human)): 94.5%
- residual activity (INSRR (human)): 90.7%
- residual activity (RIPK2 (human)): 89.3%
- residual activity (GRK5 (human)): 109%
- residual activity (KDR (human)): 99.8%
- residual activity (MAP3K10 (human)): 95.4%
- residual activity (DYRK4 (human)): 96.3%
- residual activity (FGFR4 (human)): 92.9%
- residual activity (ROCK2 (human)): 98.5%
- residual activity (DAPK1 (human)): 81.1%
- residual activity (FLT3 (human)): 98.9%
- residual activity (EPHB1 (human)): 105%
- residual activity (PHKG1 (human)): 99.2%
- residual activity [1]: 82.7%
- residual activity (CLK2 (human)): 93.1%
- residual activity (STK11 (human)): 97.2%
- residual activity (CSNK1E (human)): 103%
- residual activity (PKN1 (human)): 98.9%
- residual activity (MYLK2 (human)): 97.1%
- residual activity (ERBB4 (human)): 85.3%
- residual activity (TSSK2 (human)): 97%
- residual activity (CSNK1G3 (human)): 93.4%
- residual activity (AURKB (human)): 96.9%
- residual activity (SRC (human)): 97%
- residual activity (CDK4 CCND3 (human)): 98.4%
- residual activity (RPS6KB2 (human)): 102%
- residual activity (PIM1 (human)): 101%
- residual activity (DCLK2 (human)): 104%
- residual activity (BLK (human)): 103%
- residual activity (RPS6KA4 KD2 (human)): 85.8%
- residual activity (HIPK4 (human)): 101%
- residual activity [2]: 104%
- residual activity (MERTK (human)): 98.1%
- residual activity (MAP3K9 (human)): 95.7%
- residual activity [3]: 95.9%
- residual activity (TEC (human)): 139%
- residual activity (INSR (human)): 105%

Compound: COc1cc(Nc2c(C#N)cnc3cc(OCCCN4CCN(C)CC4)c(OC)cc23)c(Cl)cc1Cl
- residual activity (WNK2 (human)): 94.2%
- residual activity (MELK (human)): 25.8%
- residual activity (INSRR (human)): 36.9%
- residual activity (RIPK2 (human)): 111%
- residual activity (GRK5 (human)): 109%
- residual activity (MAP3K10 (human)): 22.9%
- residual activity (DYRK4 (human)): 97.9%
- residual activity (FGFR4 (human)): 94.1%
- residual activity (ROCK2 (human)): 85%
- residual activity (DAPK1 (human)): 106%
- residual activity (FLT3 (human)): 30.3%
- residual activity (EPHB1 (human)): 11.8%
- residual activity (AKT1 (human)): 94.4%
- residual activity (PHKG1 (human)): 52.1%
- residual activity [1]: 98.1%
- residual activity (CLK2 (human)): 69.3%
- residual activity (STK11 (human)): 98.1%
- residual activity (CSNK1E (human)): 11.4%
- residual activity (PKN1 (human)): 74.2%
- residual activity (MYLK2 (human)): 32.1%
- residual activity (ERBB4 (human)): 1.53%
- residual activity (TSSK2 (human)): 83.9%
- residual activity (CSNK1G3 (human)): 98.3%
- residual activity (AURKB (human)): 83.1%
- residual activity (SRC (human)): 6.05%
- residual activity (CDK4 CCND3 (human)): 103%
- residual activity (CDK7 CCNH MNAT1 (human)): 113%
- residual activity (RPS6KB2 (human)): 107%
- residual activity (FYN (human)): 29.4%
- residual activity (PIM1 (human)): 99.2%
- residual activity (DCLK2 (human)): 98.4%
- residual activity (BLK (human)): 20.7%
- residual activity (RPS6KA4 KD2 (human)): 101%
- residual activity (HIPK4 (human)): 74.6%
- residual activity [2]: 71.5%
- residual activity (MERTK (human)): 28.9%
- residual activity (MAP3K9 (human)): 16.5%
- residual activity [3]: 96.9%
- residual activity (TEC (human)): 96.1%
- residual activity (INSR (human)): 69.8%

— the kinase profiling compilation of Christmann-Franck et al. (2016)
